pIC50: −log10 of the molar value.
How the values were obtained:
Cytochrome P450 2B6 [1] = target: T1, Cytochrome P450 2B6 (Homo sapiens, UniProt P20813); assay: Inhibition of human recombinant CYP2B6 in presence of reduced glutathione; type: ADME; settings: recombinant enzyme
T1 sequence (P20813 whole entry): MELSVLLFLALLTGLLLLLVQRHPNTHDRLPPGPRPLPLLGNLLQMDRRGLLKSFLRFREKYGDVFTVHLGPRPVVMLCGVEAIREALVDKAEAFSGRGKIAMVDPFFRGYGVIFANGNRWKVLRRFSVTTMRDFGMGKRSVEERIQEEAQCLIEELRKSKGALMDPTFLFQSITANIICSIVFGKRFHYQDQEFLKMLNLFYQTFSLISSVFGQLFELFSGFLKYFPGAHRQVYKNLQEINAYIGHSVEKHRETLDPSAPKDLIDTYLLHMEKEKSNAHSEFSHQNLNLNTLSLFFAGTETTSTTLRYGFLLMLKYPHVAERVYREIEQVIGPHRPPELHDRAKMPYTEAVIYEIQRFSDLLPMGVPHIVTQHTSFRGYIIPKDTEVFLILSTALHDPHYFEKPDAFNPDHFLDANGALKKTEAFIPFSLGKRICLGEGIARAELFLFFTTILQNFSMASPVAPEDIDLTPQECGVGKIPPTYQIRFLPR

Cytochrome P450 2C9 [2] = target: T2, Cytochrome P450 2C9 (Homo sapiens, UniProt P11712); assay: Inhibition of human recombinant CYP2C9; type: ADME
Cytochrome P450 2D6 [3] = target: T3, Cytochrome P450 2D6 (Homo sapiens, UniProt P10635); assay: Inhibition of human recombinant CYP2D6 in presence of reduced glutathione; type: ADME; settings: recombinant enzyme
Cytochrome P450 3A4 [4] = target: T4, Cytochrome P450 3A4 (Homo sapiens, UniProt P08684); assay: Inhibition of human recombinant CYP3A4 in presence of reduced glutathione; type: ADME; settings: recombinant enzyme
Cytochrome P450 2C9 [5] = target: T2, Cytochrome P450 2C9; assay: Inhibition of human recombinant CYP2C9 in presence of reduced glutathione; type: ADME; settings: recombinant enzyme
Cytochrome P450 2B6 [6] = target: T1, Cytochrome P450 2B6; assay: Inhibition of human recombinant CYP2B6 at 100 uM; type: ADME; settings: recombinant enzyme
Cytochrome P450 2D6 [7] = target: T3, Cytochrome P450 2D6; assay: Inhibition of human recombinant CYP2D6 at 100 uM; type: ADME; settings: recombinant enzyme
Cytochrome P450 1A2 = target: T5, Cytochrome P450 1A2 (Homo sapiens, UniProt P05177); assay: Inhibition of human recombinant CYP1A2; settings: for log(1/IC50): human, recombinant CYP1A2
T5 sequence (P05177 whole entry): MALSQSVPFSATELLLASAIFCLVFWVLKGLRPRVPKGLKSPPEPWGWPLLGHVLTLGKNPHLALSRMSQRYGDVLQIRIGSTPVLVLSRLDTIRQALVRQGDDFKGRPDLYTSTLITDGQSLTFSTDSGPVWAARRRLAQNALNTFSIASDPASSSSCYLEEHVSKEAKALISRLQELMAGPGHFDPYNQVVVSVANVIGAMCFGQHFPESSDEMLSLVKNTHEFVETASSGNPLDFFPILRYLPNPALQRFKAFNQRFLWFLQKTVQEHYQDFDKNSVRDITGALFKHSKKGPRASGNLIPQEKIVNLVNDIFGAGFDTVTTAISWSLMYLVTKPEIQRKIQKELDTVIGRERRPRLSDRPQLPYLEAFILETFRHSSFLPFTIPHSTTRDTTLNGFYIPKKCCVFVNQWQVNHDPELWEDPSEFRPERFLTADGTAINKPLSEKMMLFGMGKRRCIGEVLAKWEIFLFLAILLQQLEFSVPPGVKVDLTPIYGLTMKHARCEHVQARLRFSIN

Cytochrome P450 3A4 [8] = target: T4, Cytochrome P450 3A4; assay: Inhibition of human recombinant CYP3A4 at 100 uM; type: ADME; settings: recombinant enzyme
Cytochrome P450 2D6 [9] = target: T3, Cytochrome P450 2D6; assay: Inhibition of human recombinant CYP2D6; type: ADME

T4 sequence (P08684 whole entry): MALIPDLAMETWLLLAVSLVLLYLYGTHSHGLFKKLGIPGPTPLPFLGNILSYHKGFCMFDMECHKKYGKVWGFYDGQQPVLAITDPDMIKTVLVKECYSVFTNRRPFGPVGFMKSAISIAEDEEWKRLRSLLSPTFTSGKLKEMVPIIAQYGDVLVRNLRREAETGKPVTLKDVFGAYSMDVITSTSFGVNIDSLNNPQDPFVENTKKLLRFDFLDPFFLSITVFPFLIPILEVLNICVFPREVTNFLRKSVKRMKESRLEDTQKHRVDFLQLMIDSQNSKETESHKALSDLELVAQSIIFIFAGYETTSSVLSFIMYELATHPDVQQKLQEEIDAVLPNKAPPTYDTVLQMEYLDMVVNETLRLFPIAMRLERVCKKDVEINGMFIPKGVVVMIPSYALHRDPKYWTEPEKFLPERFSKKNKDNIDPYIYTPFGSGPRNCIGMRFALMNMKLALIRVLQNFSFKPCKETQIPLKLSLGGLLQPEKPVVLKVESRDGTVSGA
T2 sequence (P11712 whole entry): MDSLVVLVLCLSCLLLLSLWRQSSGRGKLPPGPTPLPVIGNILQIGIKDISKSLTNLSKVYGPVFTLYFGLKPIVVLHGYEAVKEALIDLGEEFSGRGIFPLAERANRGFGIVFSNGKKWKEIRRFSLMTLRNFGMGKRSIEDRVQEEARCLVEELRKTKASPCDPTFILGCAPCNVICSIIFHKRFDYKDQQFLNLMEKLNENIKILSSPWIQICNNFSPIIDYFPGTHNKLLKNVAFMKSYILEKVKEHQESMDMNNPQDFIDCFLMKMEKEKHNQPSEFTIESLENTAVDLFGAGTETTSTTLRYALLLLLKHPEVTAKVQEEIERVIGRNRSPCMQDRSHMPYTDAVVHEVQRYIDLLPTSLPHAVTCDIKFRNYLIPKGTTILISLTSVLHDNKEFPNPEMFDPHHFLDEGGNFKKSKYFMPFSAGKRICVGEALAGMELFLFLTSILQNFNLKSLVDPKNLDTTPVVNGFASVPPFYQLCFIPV
T3 sequence (P10635 whole entry): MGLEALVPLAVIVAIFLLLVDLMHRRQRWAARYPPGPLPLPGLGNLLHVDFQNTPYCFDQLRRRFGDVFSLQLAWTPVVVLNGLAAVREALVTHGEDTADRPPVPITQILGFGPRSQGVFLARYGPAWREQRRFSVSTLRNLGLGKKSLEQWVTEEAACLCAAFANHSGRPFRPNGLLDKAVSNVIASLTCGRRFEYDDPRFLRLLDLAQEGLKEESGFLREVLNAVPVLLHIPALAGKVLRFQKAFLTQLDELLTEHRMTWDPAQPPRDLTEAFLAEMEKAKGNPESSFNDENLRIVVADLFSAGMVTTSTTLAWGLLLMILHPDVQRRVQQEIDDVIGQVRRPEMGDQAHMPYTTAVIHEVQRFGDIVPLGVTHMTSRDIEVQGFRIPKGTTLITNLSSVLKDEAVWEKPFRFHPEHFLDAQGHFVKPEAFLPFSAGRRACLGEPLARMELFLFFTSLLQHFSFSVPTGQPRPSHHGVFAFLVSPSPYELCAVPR

Cc1cc(/C=C2\CC/C(=C\c3cc(C)c(O)c(C)c3)C2=O)cc(C)c1O
Activity (Cytochrome P450 2B6 [1]): Not Active | pIC50 (Cytochrome P450 2C9 [2]): 4.55 | Activity (Cytochrome P450 2D6 [3]): Not Active | Activity (Cytochrome P450 3A4 [4]): Not Active | Activity (Cytochrome P450 2C9 [5]): Not Active

O=C1/C(=C/c2ccc(Cl)c(Cl)c2)CC/C1=C\c1ccc(Cl)c(Cl)c1
Activity (Cytochrome P450 2B6 [1]): Not Active | Activity (Cytochrome P450 2D6 [3]): Not Active | Activity (Cytochrome P450 3A4 [4]): Not Active | Activity (Cytochrome P450 2C9 [5]): Not Active

O=C1/C(=C/c2ccccc2)CCC/C1=C\c1ccccc1 [2,6-DIBENZYLIDENECYCLOHEXANONE]
Activity (Cytochrome P450 2B6 [6]): Not Active | Activity (Cytochrome P450 2B6 [1]): Not Active | Activity (Cytochrome P450 2D6 [7]): Not Active | pIC50 (Cytochrome P450 1A2): 6.05 | log(1/IC50) (Cytochrome P450 1A2): 3.046 | Activity (Cytochrome P450 2D6 [3]): Not Active | Activity (Cytochrome P450 3A4 [4]): Not Active | Activity (Cytochrome P450 3A4 [8]): Not Active | Activity (Cytochrome P450 2C9 [5]): Not Active

Cc1ccc(/C=C2\CCC/C(=C\c3ccc(C)cc3)C2=O)cc1
Activity (Cytochrome P450 2B6 [6]): Not Active | Activity (Cytochrome P450 2B6 [1]): Not Active | Activity (Cytochrome P450 2D6 [7]): Not Active | pIC50 (Cytochrome P450 1A2): 4.68 | log(1/IC50) (Cytochrome P450 1A2): 1.678 | Activity (Cytochrome P450 2D6 [3]): Not Active | Activity (Cytochrome P450 3A4 [4]): Not Active | Activity (Cytochrome P450 3A4 [8]): Not Active | Activity (Cytochrome P450 2C9 [5]): Not Active

O=C(/C=C/c1ccc(Cl)cc1)/C=C/c1ccc(Cl)cc1
Activity (Cytochrome P450 2B6 [1]): Not Active | pIC50 (Cytochrome P450 1A2): 4.58 | log(1/IC50) (Cytochrome P450 1A2): 1.575 | Activity (Cytochrome P450 2D6 [3]): Not Active | Activity (Cytochrome P450 3A4 [4]): Not Active | Activity (Cytochrome P450 2C9 [5]): Not Active

O=C1/C(=C/c2ccc(C(F)(F)F)cc2)CCC/C1=C\c1ccc(C(F)(F)F)cc1
Activity (Cytochrome P450 2B6 [6]): Not Active | Activity (Cytochrome P450 2B6 [1]): Not Active | Activity (Cytochrome P450 2D6 [7]): Not Active | pIC50 (Cytochrome P450 1A2): 4.98 | log(1/IC50) (Cytochrome P450 1A2): 1.983 | Activity (Cytochrome P450 2D6 [3]): Not Active | Activity (Cytochrome P450 3A4 [4]): Not Active | Activity (Cytochrome P450 3A4 [8]): Not Active | Activity (Cytochrome P450 2C9 [5]): Not Active

O=C1/C(=C/c2ccc(Cl)cc2)CC/C1=C\c1ccc(Cl)cc1
Activity (Cytochrome P450 2B6 [1]): Not Active | Activity (Cytochrome P450 2D6 [3]): Not Active | Activity (Cytochrome P450 3A4 [4]): Not Active | Activity (Cytochrome P450 2C9 [5]): Not Active

O=C1/C(=C/c2ccccc2)CC/C1=C\c1ccccc1
Activity (Cytochrome P450 2B6 [1]): Not Active | pIC50 (Cytochrome P450 1A2): 4.44 | log(1/IC50) (Cytochrome P450 1A2): 1.437 | Activity (Cytochrome P450 2D6 [3]): Not Active | Activity (Cytochrome P450 3A4 [4]): Not Active | Activity (Cytochrome P450 2C9 [5]): Not Active

O=C(/C=C/c1ccccc1)/C=C/c1ccccc1
Activity (Cytochrome P450 2B6 [1]): Not Active | pIC50 (Cytochrome P450 2D6 [9]): 4.16 | pIC50 (Cytochrome P450 2C9 [2]): 4.17 | Activity (Cytochrome P450 2D6 [3]): Not Active | Activity (Cytochrome P450 3A4 [4]): Not Active | Activity (Cytochrome P450 2C9 [5]): Not Active

O=C(/C=C/c1cccc(Cl)c1)/C=C/c1cccc(Cl)c1
Activity (Cytochrome P450 2B6 [1]): Not Active | pIC50 (Cytochrome P450 2C9 [2]): 4.67 | pIC50 (Cytochrome P450 1A2): 5.47 | log(1/IC50) (Cytochrome P450 1A2): 2.469 | Activity (Cytochrome P450 2D6 [3]): Not Active | Activity (Cytochrome P450 3A4 [4]): Not Active | Activity (Cytochrome P450 2C9 [5]): Not Active

CC(C)(C)c1cc(/C=C2\CCC/C(=C\c3cc(C(C)(C)C)c(O)c(C(C)(C)C)c3)C2=O)cc(C(C)(C)C)c1O
Activity (Cytochrome P450 2B6 [6]): Not Active | Activity (Cytochrome P450 2B6 [1]): Not Active | Activity (Cytochrome P450 2D6 [7]): Not Active | Activity (Cytochrome P450 2D6 [3]): Not Active | Activity (Cytochrome P450 3A4 [4]): Not Active | Activity (Cytochrome P450 3A4 [8]): Not Active | Activity (Cytochrome P450 2C9 [5]): Not Active

O=C1/C(=C/c2ccc(O)cc2)CCC/C1=C\c1ccc(O)cc1
Activity (Cytochrome P450 2B6 [6]): Not Active | Activity (Cytochrome P450 2B6 [1]): Not Active | Activity (Cytochrome P450 2D6 [7]): Not Active | pIC50 (Cytochrome P450 2C9 [2]): 6.00 | Activity (Cytochrome P450 2D6 [3]): Not Active | Activity (Cytochrome P450 3A4 [4]): Not Active | Activity (Cytochrome P450 3A4 [8]): Not Active | Activity (Cytochrome P450 2C9 [5]): Not Active

O=C1/C(=C/c2cccc(Cl)c2)CC/C1=C\c1cccc(Cl)c1
Activity (Cytochrome P450 2B6 [1]): Not Active | Activity (Cytochrome P450 2D6 [3]): Not Active | Activity (Cytochrome P450 3A4 [4]): Not Active | Activity (Cytochrome P450 2C9 [5]): Not Active

COc1ccc(/C=C2\CCC/C(=C\c3ccc(OC)cc3)C2=O)cc1
Activity (Cytochrome P450 2B6 [6]): Not Active | Activity (Cytochrome P450 2B6 [1]): Not Active | Activity (Cytochrome P450 2D6 [7]): Not Active | pIC50 (Cytochrome P450 1A2): 4.96 | log(1/IC50) (Cytochrome P450 1A2): 1.959 | Activity (Cytochrome P450 2D6 [3]): Not Active | Activity (Cytochrome P450 3A4 [4]): Not Active | Activity (Cytochrome P450 3A4 [8]): Not Active | Activity (Cytochrome P450 2C9 [5]): Not Active
